Measurements reported in patent publication US20210154281A1, “CELL-BASED CANCER VACCINES AND CANCER THERAPIES” (Massachusetts Institute of Technology, priority 2019, published 2021).
Read-outs that look alike come from different tables or passages of the source.

How the values were obtained:
[1] = tested on: RIPK1; test: Western blotting with anti phosphoRIPK1(S166) antibody; type: cell-based, mouse; conditions: B16-Ova cells
[2] = tested on: B16-Ova cells; test: ATP levels in cell-free culture media by CellTiter-Glo; type: cell-based, mouse; conditions: for ATP (nM) MEAN: culture media 24-48 hours after treatment
Experimental: For measurement of ATP levels, cell-free culture media obtained as above was analyzed by CellTiter-Glo according to the manufacturer's protocol. Values were converted to ATP concentrations using a standard curve generated using pure ATP.

[3] = tested on: CT26 mouse colon cancer cells; conditions: previously reported; cited from earlier work
[4] = tested on: B16F10 melanoma tumor cell line; test: Cell death by AnnexinV/DAPI staining 48 hours after drug treatment; type: cell-based, mouse; conditions: 48 hours; for cell death by DAPI and Annexin V staining: at the concentrations used; for cytotoxicity at 10 µM / viability at 10 µM / cytotoxicity at 50 µM / viability at 50 µM: Mus musculus, B16-F10; for viability at 10 µM / viability at 50 µM: read-out: AnnV−DAPI− (%) Mean
Experimental: For assessment of cell death, floating and attached cells were harvested after 48 hours of treatment with the indicated chemotherapeutic drugs. Attached cells were detached using 5 mM EDTA in PBS. The recovered cells were centrifuged at 250×g for 5 minutes, washed once in PBS containing 0.9 mM Ca2+ and 0.5 mM Mg2+ and then stained with AnnV-FITC for 15 minutes in Annexin binding buffer at room temperature according to the manufacturer's protocol (Biolegend). Cells were co-stained with DAPI at a final concentration of 1 μg/ml for 2 minutes in Annexin binding buffer, brought to a final volume of 500 ul using PBS containing 0.9 mM Ca2^+ and 0.5 mM Mg2^+ and analyzed by flow cytometry.
To identify how DNA-damaging chemotherapy could be optimally used to enhance anti-tumor immune function, cytotoxicity assays were performed using the B16F10 melanoma tumor cell line expressing ovalbumin (B16-Ova). Cells were treated with clinically used chemotherapeutic agents followed by assaying for cell death by DAPI and Annexin V staining 48 hours later.

[5] = tested on: B16-Ova cells; test: HMGB1 in cell culture media by ELISA; type: cell-based, mouse; conditions: for HMGB1 (ng/ml) MEAN: culture media 24-48 hours after treatment
Experimental: Cell-free cell culture media was then analyzed by ELISA for HMGB1 according to the manufacturer's protocol.

[6] = tested on: p38MAPK; test: Western blotting of cell lysates with anti-phospho-p38 antibody; type: cell-based, mouse; conditions: B16-Ova cells
[7] = Cell viability (survival) assay with CellTiter-Glo, 48 hours; type: cell-based, mouse; conditions: mouse, B16F10 melanoma tumor cells, 48 hours, normalized to DMSO-treated control cells
Experimental: For assays of survival, 15,000 cells were plated per well in a 96-well plate in 100 μl media with 5 replicates per condition. Wells along the four edges of the plate were not used. Following cell attachment, the indicated drugs were added in an equal volume of media, and incubated for an additional 48 hours. The media was then removed and replaced with 100 ul of fresh media at room temperature. Following a 30 minute incubation at room temperature, 50 μl of CellTiter-Glo reagent was added, followed by 2 minutes of gentle mixing. The plate was incubated at room temperature for an additional 10 minutes. 100 μl of supernatant was transferred to a 96-well white opaque plate and luminescence was read on a Tecan microplate reader. Values were normalized to those of DMSO-treated control cells.

[8] = tested on: B16-Ova cells; test: Proportion of live and dead cells (AnnV/DAPI) after 24 h treatment with increasing doses; type: cell-based, mouse
Experimental: B16-Ova cells or MC-38-Ova cells were treated with various doses of chemotherapy as indicated in FIGS. 1F-1I for 24 hours after which the floating fraction of cells was transferred to a separate tube and washed with PBS (for AnnV/DAPI staining) or IMDM (for co-culture with BMDC). The attached fraction was rinsed 1× with PBS, detached using 5 mM EDTA (in PBS), washed with PBS or IMDM and transferred to a separate tube. Separately, cells treated with chemotherapy for 24 h were re-plated at 1 million cells per well of a 24-well plate in 500 ul of IMDM (10% FBS; P/S). Cell-free supernatants were collected after a further 24 h. […] Lysate of the total chemotherapy-treated cell mixture was generated by three rounds of freeze-thawing by alternate incubations in liquid nitrogen and a 37 C water bath.

[9] = tested on: MC-38-Ova cells; test: In vitro cross presentation assay: drug-treated MC-38-Ova cells, BMDC and OT-1 CD8+ T-cells; type: cell-based, mouse
Experimental: B16-Ova or MC-38 Ova cells were treated with various doses of chemotherapeutic drugs for 24 h followed by extensive washing in IMDM (10% FBS, P/S). Subsequently 1×10^6 treated cells were co-cultured with 2.5×10^5 BMDC per well of a 24-well plate for each condition tested. After 24 hours of co-culture, supernatants were removed from each well and the BMDC washed 2-3 times in T-cell media (RPMI containing 10% FBS, 20 mM HEPES, 1 mM sodium pyruvate, 55 uM b-mercaptoethanol, 2 mM L-glutamine, nonessential amino acids and antibiotics). CD8+OT-I T-cells isolated from spleens of OT-I mice were then co-cultured with the BMDC at 125,000 T-cells per well to achieve an effector to target ratio of 0.5. Where indicated, BMDC and/or T-cells were also exposed to chemotherapy drugs. After a 12-15 h incubation, IFN-g producing T-cells were identified and quantified by intra-cellular cytokine staining and flow cytometry using a BD LSR II or Fortessa flow cytometer. Cells were first gated for CD3 expression, then re-gated for CD8 and IFNg expression.

[10] = tested on: B16-Ova cells; test: Calreticulin surface exposure by flow cytometry; conditions: for CALR (%): 24 hours after treatment, representative experiment; for level of externalized calreticulin: 24 hours of drug exposure
[11] = MC-38-Ova cells treated with 10 uM for 24 h
[12] = MC-38-Ova cells treated with 50 uM for 24 h

SMILES | RIPK1 activation [1] | ATP (nM) MEAN ([2]; 10 uM) [nM] | ATP (nM) MEAN ([2]; 50 uM) [nM] | immunogenic cell death / calreticulin exposure [3] | cell death by DAPI and Annexin V staining [4] | cytotoxicity at 10 µM ([4]; read-out: AnnV+DAPI+ (%) Mean) [%] | cytotoxicity at 10 µM ([4]; read-out: AnnV+DAPI− (%) Mean) [%] | cytotoxicity at 10 µM ([4]; read-out: AnnV−DAPI+ (%) Mean) [%] | viability at 10 µM [4] [%] | cytotoxicity at 50 µM ([4]; read-out: AnnV+DAPI+ (%) Mean) [%] | cytotoxicity at 50 µM ([4]; read-out: AnnV+DAPI− (%) Mean) [%] | cytotoxicity at 50 µM ([4]; read-out: AnnV−DAPI+ (%) Mean) [%] | viability at 50 µM [4] [%] | HMGB1 (ng/ml) MEAN ([5]; 10 uM) [ng/mL] | HMGB1 (ng/ml) MEAN ([5]; 50 uM) [ng/mL] | p38MAPK activation [6] | viability at 48 h, 10 µM [7] [%] | viability at 48 h, 50 µM [7] [%] | % CD3+CD8+IFN-γ+ T-cells MEAN [9, 11] [%] | % CD3+CD8+IFN-γ+ T-cells MEAN [9, 12] [%] | other results
COc1cc([C@@H]2c3cc4c(cc3[C@@H](O[C@@H]3O[C@@H]5CO[C@@H](C)O[C@H]5[C@H](O)[C@H]3O)[C@H]3COC(=O)[C@H]23)OCO4)cc(OC)c1O [Etop, etoposide] | induce RIPK1 activation | 2.05 | 1.35 | ineffective at inducing ER stress and calreticulin exposure | caused varying extents of apoptotic and non-apoptotic cell death | 51 | 11.6 | 6.54 | 30.9 | 47.9 | 10.9 | 4.57 | 36.6 | 29.24 | 10.65 | p38MAPK activation | 34.9 | 36.1 | 13.13 | 3.83 | HMGB1 release into the media ([5]; 24-48 hours post-treatment window): lowest levels of HMGB1 release; proportion of dead cells (AnnV or DAPI single or double positive) ([8]; 25 uM): ~30%; further increase of the proportion of dead cells ([8]; 100 uM): ~5%; proportion of dead cells (AnnV or DAPI single or double positive) ([8]; between 25 and 75 uM): ~30%; inducing the appearance of IFNγ+OT-1 CD8+ T-cells ([9]; MC-38-Ova, etoposide 10 μM): the most effective treatment; CALR (%) ([10]; 10 uM): 9.69%; CALR (%) ([10]; 50 uM): 9.69%; level of externalized calreticulin [10]: intermediate levels of calreticulin exposure
O=C1c2c(O)ccc(O)c2C(=O)c2c(NCCNCCO)ccc(NCCNCCO)c21 [Mito, mitoxantrone] | induce RIPK1 activation | 1.02 | 1.80 | promote strong immunogenic cell death | caused varying extents of apoptotic and non-apoptotic cell death | 52.4 | 17.1 | 9.44 | 21.1 | 73.8 | 11.7 | 8.5 | 6.08 | 70.09 | 14.63 | p38MAPK activation | 0.0743 | 0.000452 | 3.433 | 0.148 | ATP release ([2]; after 24 hours of treatment): Substantial ATP release; dead cell proportion ([8]; 25 uM and higher doses): greater than 90%; dead cell proportion ([8]; between 5 and 10 uM): ~50%; CALR (%) ([10]; 10 uM): 17.10%; CALR (%) ([10]; 50 uM): 4.15%; level of externalized calreticulin [10]: highest level of externalized calreticulin
